Measured values taken from US10273235B2, “Compositions and methods for inhibiting β-lactamase” (LegoChem Biosciences, Inc., priority 2015, dated 2019).
Where “and” joins values, the source holds several entries; their conditions need not be identical. Equal values may be shown once.

Key:
[1] = system: P. aeruginosa ARC3506; assay: BLI potentiation MIC, P. aeruginosa ARC3506 (VEB-1, OXA-10, OprD−, AmpC); assay type: cell-based; details: BLI fixed 4 ug/ml; incubation 19 h
Protocol: (§1) MIC90 (μg/mL) is the lowest concentration of an antibiotic that will inhibit the visible growth of 90% of microorganisms after incubation as compared with a control group to which the antibiotic is not treated.
(§2) MIC values were measured by the broth microdilution method developed by the Clinical and Laboratory Standards Institute (CLSI) (see CLSI M07-A9, Methods for Dilution Antimicrobial Susceptibility Test for Bacteria that Grow Aerobically; Approved Standard-Ninth Edition (2012): CLSI, Villanova, Pa.). The in vitro antibacterial activity was measured with respect to the following 9 clinical isolates: P. aeruginosa (3 strains); K. pneumoniae (6 strains). The in vitro antibacterial activity of selected compounds was measured with respect to the following 15 clinical isolates: K. pneumoniae (15 strains).

[2] = system: K. pneumoniae 5117; assay: BLI potentiation MIC, K. pneumoniae 5117 (SHV-11, TEM-1); assay type: cell-based; details: BLI fixed 4 ug/ml; incubation 19 h
Protocol: as §1, §2

[3] = system: K. pneumoniae 4248; assay: BLI potentiation MIC, K. pneumoniae 4248 (SHV-11, CTX-M-15, TEM-1, OXA-1); assay type: cell-based; details: BLI fixed 4 ug/ml; incubation 19 h
Protocol: as §1, §2

[4] = target: T1, OXA-48 β-lactamase (class D) (Klebsiella pneumoniae, UniProt Q6XEC0); assay: Inhibitory activity against β-lactamases (nitrocefin), OXA-48; assay type: biochemical; details: 100 μM nitrocefin, 30° C., pH 6.8
T1 construct: MICs of bacterial strains used for extraction of enzymes; endogenous in cells; host or cells: bacterial strain carrying OXA-48 (E. coli according to the earlier reading)
T1 sequence (Q6XEC0 23-265, looked up): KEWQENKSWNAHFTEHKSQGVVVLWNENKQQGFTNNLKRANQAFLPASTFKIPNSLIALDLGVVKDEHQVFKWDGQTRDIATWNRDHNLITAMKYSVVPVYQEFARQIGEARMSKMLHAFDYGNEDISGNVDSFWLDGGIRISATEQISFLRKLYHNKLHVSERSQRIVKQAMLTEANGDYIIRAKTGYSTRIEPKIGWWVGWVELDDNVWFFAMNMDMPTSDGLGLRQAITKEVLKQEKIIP
Protocol: (§3) More diluted stocks were prepared as necessary. Enzyme activity was determined by monitoring the change of absorbance at 492 nm using the characteristic molecular extinction coefficient (Δε492=17,400 M^−1 cm^−1) of nitrocefin by a Shimazu UV-1650PC spectrophotometer. The nitrocefin was purchased from OXOID. Kinetic measurements were run at 30° C. in 10 mM MES[2-(N-morpholino)ethanesulfonic acid]buffer (pH 6.8) or 10 mM MES[2-(N-morpholino)ethanesulfonic acid] buffer (pH 6.8), […] BSA and 50 mM sodium bicarbonate. Reactions were performed in 2.5 mL cuvettes with 100 μM nitrocefin and initiated by adding 1.5 nM to 2.5 nM enzyme. The first 180 s of each reaction was used to measure initial rates. Data were evaluated using Microsoft Excel. Concentration dependent inhibition of enzyme was measured using different concentrations of inhibitors resulting from two-fold dilution series. Reaction progress at every concentration of inhibitor was measured in triplicates. IC50 values were calculated using 4-parameter log fits using XL Fit curve fitting software (www.idbs.com) for Excel using the following equation:
(§4) [formula] where y is the remaining enzyme activity (in %) and x is the corresponding concentration. he fitted IC50 parameter is the relative IC50, and is defined as the concentration giving a response half way between the fitted top (B) and bottom (A) of the curve.

[5] = system: K. pneumoniae 6540; assay: BLI potentiation MIC, K. pneumoniae 6540; assay type: cell-based; details: BLI fixed 4 ug/ml; incubation 19 h
Protocol: as §1, §2

[6] = system: K. pneumoniae 101; assay: BLI potentiation MIC, K. pneumoniae 101; assay type: cell-based; details: BLI fixed 4 ug/ml; incubation 19 h
Protocol: as §1, §2

[7] = system: K. pneumoniae 23; assay: BLI potentiation MIC, K. pneumoniae 23; assay type: cell-based; details: BLI fixed 4 ug/ml; incubation 19 h
Protocol: as §1, §2

[8] = target: T2, CMY-10 β-lactamase (class C) (Klebsiella aerogenes, UniProt Q99QC1); assay: Inhibitory activity against β-lactamases (nitrocefin), CMY-10; assay type: biochemical; details: 100 μM nitrocefin, 30° C., pH 6.8; read-out: IC50 values, CMY-10
T2 construct: MICs of bacterial strains used for extraction of enzymes; endogenous in cells
T2 sequence (Q99QC1 24-382): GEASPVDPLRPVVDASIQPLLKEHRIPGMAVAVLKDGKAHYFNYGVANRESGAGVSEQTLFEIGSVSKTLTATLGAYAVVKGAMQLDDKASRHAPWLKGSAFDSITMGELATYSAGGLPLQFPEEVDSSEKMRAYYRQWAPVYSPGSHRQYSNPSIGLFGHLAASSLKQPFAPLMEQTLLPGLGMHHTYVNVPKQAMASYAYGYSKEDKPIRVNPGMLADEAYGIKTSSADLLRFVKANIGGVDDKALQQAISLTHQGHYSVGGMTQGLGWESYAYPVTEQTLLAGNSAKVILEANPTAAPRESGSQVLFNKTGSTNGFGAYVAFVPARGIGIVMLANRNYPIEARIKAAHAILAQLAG
Protocol: as §3, §4

[9] = system: E. aerogenes K9911729; assay: MIC of strain used for extraction of enzymes, E. aerogenes K9911729 (CMY-10, TEM-1, SHV-12, AmpC (DQ478697)); assay type: cell-based; details: BLI: 4 ug/mL
[10] = system: K. pneumoniae 7586; assay: BLI potentiation MIC, K. pneumoniae 7586; assay type: cell-based; details: BLI fixed 4 ug/ml; incubation 19 h
Protocol: as §1, §2

[11] = system: K. pneumoniae ATCC700603; assay: BLI potentiation MIC, K. pneumoniae ATCC700603 (SHV-3); assay type: cell-based; details: BLI fixed 4 ug/ml; incubation 19 h
Protocol: as §1, §2

[12] = system: P. aeruginosa ARC3514; assay: BLI potentiation MIC, P. aeruginosa ARC3514 (KPC-2, OprD−, AmpC); assay type: cell-based; details: BLI fixed 4 ug/ml; incubation 19 h
Protocol: as §1, §2

[13] = target: KPC-3 β-lactamase (class A) (Klebsiella pneumoniae, UniProt Q9F663, H272Y); assay: Inhibitory activity against β-lactamases (nitrocefin), KPC-3; assay type: biochemical, K. pneumoniae; details: 100 μM nitrocefin, 30° C., pH 6.8; read-out: IC50 values, KPC-3
Chain of KPC-3 β-lactamase (class A) (Q9F663 25-293 H272Y): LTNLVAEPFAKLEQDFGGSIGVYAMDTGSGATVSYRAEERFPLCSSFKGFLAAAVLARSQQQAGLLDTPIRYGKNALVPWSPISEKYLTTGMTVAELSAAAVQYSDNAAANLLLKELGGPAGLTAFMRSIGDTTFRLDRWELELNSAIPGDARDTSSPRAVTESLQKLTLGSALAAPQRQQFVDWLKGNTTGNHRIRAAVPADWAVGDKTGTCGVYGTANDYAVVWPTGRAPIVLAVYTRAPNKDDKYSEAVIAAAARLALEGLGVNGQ
Protocol: as §3, §4

[14] = system: K. pneumoniae 5216; assay: BLI potentiation MIC, K. pneumoniae 5216 (TEM-1A); assay type: cell-based; details: BLI fixed 4 ug/ml; incubation 19 h
Protocol: as §1, §2

[15] = system: K. pneumoniae NDM-506; assay: BLI potentiation MIC, K. pneumoniae NDM-506; assay type: cell-based; details: BLI fixed 4 ug/ml; incubation 19 h
Protocol: as §1, §2

[16] = system: K. pneumoniae 4006; assay: BLI potentiation MIC, K. pneumoniae 4006 (SHV-12, CTX-M-15, TEM-1, OXA-9); assay type: cell-based; details: BLI fixed 4 ug/ml; incubation 19 h
Protocol: as §1, §2

[17] = system: K. pneumoniae 6839; assay: BLI potentiation MIC, K. pneumoniae 6839 (SHV-11, SHV-12, DHA-1); assay type: cell-based; details: BLI fixed 4 ug/ml; incubation 19 h
Protocol: as §1, §2

[18] = system: K. pneumoniae 100; assay: BLI potentiation MIC, K. pneumoniae 100; assay type: cell-based; details: BLI fixed 4 ug/ml; incubation 19 h
Protocol: as §1, §2

[19] = system: K. pneumoniae CL5761; assay: MIC of strain used for extraction of enzymes, K. pneumoniae CL5761 (KPC-3, TEM-216, SHV-5); assay type: cell-based; details: BLI: 4 ug/mL
Protocol: as §1, §2

[20] = system: K. pneumoniae 5576; assay: BLI potentiation MIC, K. pneumoniae 5576 (SHV-11, CMY-2, DHA-1, TEM-1); assay type: cell-based; details: BLI fixed 4 ug/ml; incubation 19 h
Protocol: as §1, §2

[21] = system: K. pneumoniae 89; assay: BLI potentiation MIC, K. pneumoniae 89; assay type: cell-based; details: BLI fixed 4 ug/ml; incubation 19 h
Protocol: as §1, §2

[22] = system: K. pneumoniae MP14; assay: BLI potentiation MIC, K. pneumoniae MP14; assay type: cell-based; details: BLI fixed 4 ug/ml; incubation 19 h
Protocol: as §1, §2

[23] = system: K. pneumoniae 3784; assay: BLI potentiation MIC, K. pneumoniae 3784 (SHV-11, SHV-12, DHA-1); assay type: cell-based; details: BLI fixed 4 ug/ml; incubation 19 h
Protocol: as §1, §2

[24] = system: E. coli K0519020; assay: MIC of strain used for extraction of enzymes, E. coli K0519020 (CTX-M-15, TEM-1, OXA-1, AmpC (NC_000913)); assay type: cell-based; details: BLI: 4 ug/mL
[25] = system: P. aeruginosa ATCC27853; assay: BLI potentiation MIC (broth microdilution), P. aeruginosa ATCC27853 (PoxB, AmpC); assay type: cell-based; details: BLI fixed 4 ug/ml; incubation 19 h
Protocol: as §1, §2

[26] = system: K. pneumoniae 5971(KOX); assay: BLI potentiation MIC, K. pneumoniae 5971(KOX); assay type: cell-based; details: BLI fixed 4 ug/ml; incubation 19 h
Protocol: as §1, §2

SMILES: NCCONC(=O)[C@@H]1CC[C@@H]2CN1C(=O)N2OS(=O)(=O)O [OP-595]
- MIC of Ceftazidime with BLI [1]: 32 µg/mL
- MIC of LCB10-0200 with BLI [1]: 0.25 μg/mL
- MIC of Meropenem with BLI [1]: 64 µg/mL
- MIC of LCB10-0200 with BLI [2]: 0.0625 μg/mL
- MIC of Meropenem with BLI [2]: 0.5 µg/mL and 0.25 µg/mL
- MIC of Ceftazidime with BLI [3]: 0.0625 µg/mL
- MIC of LCB10-0200 with BLI [3]: <0.03125 μg/mL
- MIC of Meropenem with BLI [3]: 0.0625 µg/mL
- IC50 [4]: 44.2 µM
- MIC of LCB10-0200 with BLI [5]: 0.0625 μg/mL
- MIC of Meropenem with BLI [5]: 0.125 µg/mL and 0.0625 µg/mL
- MIC of LCB10-0200 with BLI [6]: 0.25 μg/mL
- MIC of Meropenem with BLI [6]: 0.125 µg/mL and 0.0625 µg/mL
- MIC of LCB10-0200 with BLI [7]: 1 μg/mL
- IC50 [8]: 42.6 µM
- MIC of LCB10-0200 with BLI [9]: <0.0312 μg/mL
- MIC of Meropenem with BLI [9]: <0.0312 µg/mL
- MIC of LCB10-0200 with BLI [10]: 0.03125 μg/mL and 0.0625 μg/mL
- MIC of Ceftazidime with BLI [11]: 0.125 µg/mL
- MIC of LCB10-0200 with BLI [11]: 0.125 μg/mL
- MIC of Meropenem with BLI [11]: 0.125 µg/mL and 0.0625 µg/mL
- MIC of Ceftazidime with BLI [12]: 8 µg/mL
- MIC of LCB10-0200 with BLI [12]: 0.125 μg/mL and 0.25 μg/mL
- MIC of Meropenem with BLI [12]: >64 µg/mL
- IC50 [13]: 63.7 nM
- MIC of LCB10-0200 with BLI [14]: 0.25 μg/mL and 0.5 μg/mL
- MIC of Meropenem with BLI [14]: 2 µg/mL
- MIC of Ceftazidime with BLI [15]: 0.125 µg/mL
- MIC of Meropenem with BLI [15]: >64 µg/mL
- MIC of Ceftazidime with BLI [16]: 0.125 µg/mL
- MIC of LCB10-0200 with BLI [16]: 0.03125 μg/mL and 0.0625 μg/mL
- MIC of Meropenem with BLI [16]: 0.0625 µg/mL
- MIC of LCB10-0200 with BLI [17]: 0.0625 μg/mL
- MIC of LCB10-0200 with BLI [18]: 0.0625 μg/mL
- MIC of LCB10-0200 with BLI [19]: 0.25 μg/mL
- MIC of Meropenem with BLI [19]: 1 µg/mL
- MIC of Ceftazidime with BLI [20]: 0.125 µg/mL
- MIC of LCB10-0200 with BLI [20]: 0.0625 μg/mL
- MIC of Meropenem with BLI [20]: 0.03125 µg/mL and 0.0625 µg/mL
- MIC of LCB10-0200 with BLI [21]: 0.0625 μg/mL
- MIC of LCB10-0200 with BLI [22]: 0.03125 μg/mL and <0.0312 μg/mL
- MIC of Ceftazidime with BLI [23]: 0.5 µg/mL
- MIC of LCB10-0200 with BLI [23]: 0.0625 μg/mL
- MIC of Meropenem with BLI [23]: 0.25 µg/mL
- MIC of LCB10-0200 with BLI [24]: 0.0625 μg/mL
- MIC of Meropenem with BLI [24]: 0.125 µg/mL
- MIC of Ceftazidime with BLI [25]: 2 µg/mL
- MIC of LCB10-0200 with BLI [25]: 0.25 μg/mL and 0.5 μg/mL
- MIC of Meropenem with BLI [25]: 2 µg/mL
- MIC of LCB10-0200 with BLI [26]: 8 μg/mL and 16 μg/mL
